From patent US6214563A, “Photon reducing agents for reducing undesired light emission in assays” (Aurora Biosciences Corporation, priority 1998, dated 2001)
One block for each molecule: values may come before it.

Tests used:
[1] = Effect of 50% methanol on coumarin fluorescence and phenol red absorbance (Example 2); assay type: physicochemical
Method: To further investigate the ability of a photon reducing agent to reduce fluorescence of a solution, fluorescence of a dye in the presence of a photon reducing agent was monitored in the presence and absence of methanol.
The fluorescence from a fluorophore in the presence of a photon reducing agent (phenol red) was determined in both aqueous buffer and aqueous buffer containing 50% (vol/vol) methanol. A 10 μM solution of 6-chloro-7-hydroxy coumarin-3-carboxylate was prepared in 39 mM phosphate buffer pH 7.5 and in a 1:1 mixture of same phosphate buffer and methanol. 1% (vol/vol) of a 100 mM aqueous Phenol Red stock solution was added to the solutions.

arthritis = conditions: in vivo; cited from earlier work
[2] = Front face solution fluorescence of coumarin with and without phenol red (Example 1); conditions: 1 mM phenol red; 0.5 μM coumarin; 50% methanol/phosphate buffer pH 7.5
Method: To investigate the ability of a photon reducing agent to reduce fluorescence of a solution, emission of a fluorophore from a sample was monitored in the presence and absence of a photon reducing agent.
Fluorescence from a solution of a blue fluorescent dye, 6-chloro-7-hydroxy coumarin 3-carboxylate, was determined in the presence and absence of a 1 mM phenol red as the photon reducing agent. A solution of 0.5 μM 6-chloro-7-hydroxy coumarin-3-carboxylate in solvent containing 50% (vol/vol) aqueous 39 mM phosphate buffer pH 7.5 and 50% (vol/vol) methanol was prepared. After taking a front face fluorescence spectrum of this solution on a Spex Fluorolog 2, 1% (vol/vol) of a 100 mM aqueous Phenol Red stock solution was added and another spectrum taken. Front face fluorescence refers to exciting the sample at a right angle to the sample surface and collecting emitted light (for example, from the excited region or emission region) at 12.5 degrees from such angle of excitation.

[3] = Absorption maxima of dyes (Table 1); assay type: physicochemical; conditions: value printed in parentheses
[4] = Coumarin fluorescence as a function of path length (Example 6); conditions: 10 μM coumarin + 1 mM phenol red; FIG. 10A
Method: To further investigate the ability of photon reducing agents to reduce fluorescence emitted from a solution, fluorescence emitted from a solution containing a fluorophore in the presence of a photon reducing agent was monitored as a function sample thickness.
A photon reducing agent, phenol red, was tested with a fluorophore, coumarin, as a function of sample thickness (path length). The experiment was conducted using a microscope equipped with epifluorescence. The liquid samples were drawn into low fluorescence capillary tubes of fixed path length (Vitro Dynamics, Rockaway N.J.) as indicated in the graphs. The following samples were evaluated:
The samples were excited using a 405/20 filter via a 425 dichroic reflector through a 20× objective (Zeiss 20× Fluar). Emitted light was filtered through a 460/50 filter and detected by an intensified CCD camera (Stanford Photonics, Menlo Park, Calif.). The detector output was converted to a 512×512 pixel eight-bit digital image. The data reflect the average intensity within a 20×20 pixel area within the capillary. The background intensity of the field was subtracted from all values.

[5] = Residual coumarin fluorescence with non-dye quenchers and particulates (Example 3); conditions: ex. 395 nm, em. 460 nm; pH 7.5
T-cells = conditions: cited from earlier work

increase of fluorescence in 50% methanol buffer ([1]; absence of a photon reducing agent): about 30%
Molecule: O=C(O)c1cc2cc(Cl)c(O)cc2oc1=O [6-chloro-7-hydroxy coumarin-3-carboxylate]

Molecule: C[C@]12CCC(=O)C=C1CC[C@@H]1[C@@H]2[C@@H](O)C[C@@]2(C)[C@H]1CC[C@]2(O)C(=O)CO [Hydrocortisone]
efficacy in rabbit knee arthritis model (arthritis): efficacious in this model

decrease of absorbance at the emission wavelength of the coumarin in 50% methanol buffer ([1]; 50% methanol buffer): about 20%
absorption maximum, value in parentheses [3]: 423 nm
Molecule: O=S1(=O)OC(c2ccc(O)cc2)(c2ccc(O)cc2)c2ccccc21 [phenol red]
reduction of front face fluorescence [2]: 70 fold
attenuation of coumarin fluorescence [4]: significantly attenuated

Molecule: NCCN(CCN)CCN [tris (2-aminoethyl) amine]
concentration required (collisional quenchers) [5]: higher than 100 mM

Molecule: cyclosporin A
prevention of T-cell proliferation in vitro (T-cells): prevent proliferation of T-cells in vitro
